This is an account of results in patent US12410189B2, “Polymorphs and solid forms of (S)-2-2((2-((S)-4-(difluoromethyl)-2-oxooxazolidin-3-yl)-5,6-dihydrobenzo[f]imidazo[1,2-d][1,4]oxazepin-9-yl)amino)propanamide, and methods of production” (Genentech, Inc., priority 2017, dated 2025).

Structures are written as SMILES. In brackets after ≈: the same amount, converted by molar mass. Entries after “also recorded” stand apart in the source; their conditions may differ.

A short description of series [1]: Water solubility of Form A. Format: physicochemical. Particulars: pH 7.06, water, room temperature, pH of 7.06. From the text:
The trihydrate form was obtained by slurrying Form A in DI water over 4 days (RT), centrifuging the slurry to remove supernatant and then drying the solid at RT for a few hours.

The nature of series [2]: Water sorption analysis (dynamic vapor sorption). Type of series: physicochemical. The protocol: About 5-6 mg of powder sample was placed in the sample pan of an automated water sorption analyzer (Q5000SA, TA instruments, New Castle, DE) at 25° C. and a nitrogen flow rate of 200 mL/min. The sample was initially “dried” at 0% RH for a total of 600 minutes (at 60 followed by 25° C.), following which it was subjected to progressive increase in RH from 0-90%, in increments of 10% with a dwell time of 240 minutes at every RH with a dm/dt window of 0.001% for 30 minutes. This was followed by a progressive decrease in RH in decrements of 10% back to 0% RH, using the same protocol. For hydrate samples, the process was reversed where the starting RH was maintained at 90%, followed by a progressive step-wise lowering to 0%, followed by similar step wise increase back to 90%. This was done to ensure that the water of hydration is retained at the start of the experiment.

Series [3] is described as follows: Slurry of Form A in DI water, anhydrate to hydrate conversion by XRPD. Format: physicochemical. Here is the method:
Conversion of anhydrous Form A to Form B was investigated. […] To check for hydrate formation, Form A was slurried in DI water for 4 days (RT). Form conversion (anhydrate to hydrate) was initiated at 12 hours and was complete within 4 days, as detected by XRPD with reference to Form B. Anhydrate (Form A) to hydrate (Form B) conversion was measured upon slurrying in DI water for 4 days. […] Form conversion is complete by 96 hrs.

A short description of series [4]: Slurry bridging of Forms A and D (1:1) in n-propanol. Type of series: physicochemical. The protocol:
Based on Burger and Ramberger's “Heat of Fusion Rule” of polymorphism, two polymorphs are considered to be monotropic if the one with the higher melting point has a greater heat of fusion as well (Burger and Ramberger, Mikrochimica Acta (1979), 256). […] To confirm this further, a slurry bridging experiment was conducted at RT in n-propanol, which had previously yielded Form D from the crude API.
(§1) Deionized (DI) Water-ethanol (absolute alcohol) mixtures of different compositions ranging from 0-100% water were prepared and their water activities were measured using a water activity meter. Slurry experiments were set up at RT wherein 1:1 mixtures of trihydrate and anhydrous forms of GDC-0077 (40 mg total) were added to these solvent mixtures (1.5 mL liquid) and agitated at RT over 4 days. After 4 days, the samples were aliquoted and centrifuged. The solids were analyzed by XRPD and the supernatant was analyzed for water activity. 1:1 mixture of Forms A and D was slurried in in-propanol overnight at RT. The slurry was centrifuged and the solid form was analyzed by XRPD.

The nature of series [5]: Stability study of milled Form A in open vials. Type of series: physicochemical. Particulars: up to 8 weeks. Here is the method:
(§2) Milling of Form A may optimize certain PK properties. A scaled up Form A lot was milled and also placed on stability studies (40° C./75% RH, 25° C./60% RH, open vials). Three more lots were also milled which behaved similarly upon milling. A milled representative lot was characterized and the physical form was determined. This lot was slurried in 100% ethanol to obtain Form A and milled using a jet mill at for 3.5 hrs with 60 psi pressure. […] The particle size analysis (PSD) was determined to be D10=0.7 μm, D50=2.7 μm, D90=6.7 μm. Post milling, a portion of the API (Active Pharmaceutical Ingredient, i.e. GDC-0077) batch was placed on stability at 40° C./75% RH and 25° C./60% RH in open vials. Solid-state data was collected at 4 and 8 weeks to evaluate effect of temperature and humidity on the physical form. The milled and stability samples were characterized by XRPD, PLM, DSC, TGA, Water sorption analysis and surface area analysis. DSC runs were performed in the modulated mode using non-hermetically crimped pans, a heating rate of 1° C./min from 0-175° C., modulation amplitude of ±1° C. and a period of 60 seconds.

Series [6] can be described thus: Particle size distribution analysis (PSD). Type of series: physicochemical. Here is the method: Particle size analysis was performed using a Malvern Mastersizer 2000 instrument equipped with a Hydros 2000SM wet dispersion attachment (Malvern Instruments Ltd., Malvern, UK). ˜30 mg of API was weighed into a vial and 1 mL of 0.1% Span 85 in heptane was added. The vial was sonicated for 5 seconds, about 0.3 mL was added to the sampler at a stir speed of 1500 rpm, and a PSD was performed at an obscuration of 10-20%. The sample was then sonicated for 10 more seconds (a total of 15 seconds), about 0.3 mL was added to the sampler, a PLM image was acquired, and PSD was performed. The same sample was then sonicated for another 15 seconds (a total of 30 seconds), about 0.3 mL was added, a PLM photo was taken and PSD was performed. From the sonication study, an appropriate sonication period was chosen. The PLM images and PSDs were used to determine how much sonication the sample needed to disperse clumps but prevent or minimize crystal fracturing. Three more samples, of ˜10 mg, were weighed into vials and 1 mL of 0.1% Span 85 in heptane was added. The samples were sonicated for the sonication period determined in the sonication study. The final PSD analysis was performed in triplicate using the predetermined sonication period. The instrument was rinsed twice with isopropyl alcohol (IPA) and once with heptane before being filled with 0.1% Span 85 in heptane for each sample. After the last sample had run, the instrument was rinsed with IPA once.

Series [7] in a line: Jet milling of Form A, physical form after size reduction. Type of series: physicochemical. Particulars: jet mill. Here is the method:
as §2

Series [8] in a line: Isothermal TGA dehydration of Form B. Type of series: physicochemical. Particulars: TGA held at 60° C. Here is the method: The desolvation behavior of Form B as well its ability to rehydrate was further characterized. […] As evident from the data, the hydrate dehydrates readily, losing almost all of its lattice water (12%) at 60° C. and rehydrates after 4 hours of equilibration which indicates easy passage of water in and out of the lattice. The water sorption desorption behavior of trihydrate Form B GDC-0077 at 25° C. is depicted in FIG. 10A. The dynamic vapor sorption experiment provides information about the dehydration behavior of Form B. Dehydration of Form B commences rapidly below 40% RH (desorption curve) and is complete by the time the sample is exposed to 0% RH. Although there is a hysteresis showing equilibrium lag, the anhydrous product rehydrates beyond 40% RH, equally readily. […] The trihydrate dehydrates in 2-3 steps whereas the anhydrate to hydrate formation occurs majorly in one step at >40% RH (25° C.).
Isothermal experiments: In a thermogravimetric analyzer (Q500 TGA, TA instruments), 3-4 mg of GDC-0077 samples were heated in an open aluminum pan from RT to 60° C. at a heating rate of 10° C./min held isothermally at 60° C. overnight. Samples were then either analyzed by XRPD or left to equilibrate at RT for 4 hours in the sample pan and then rerun isothermally at 60° C. using the same experimental parameters as mentioned above.

The nature of series [9]: Slurry bridging of hydrate-anhydrate mixtures in ethanol-water mixtures, water activity. Particulars: RT. Type of series: physicochemical. The protocol:
as §1, with “XRPD. An Aqualab 4TEV (Decagon Devices, WA) was used as the water activity meter in the capacitance sensor mode to acquire data at 25±0.2° C. for solvent mixtures and slurry supernatants. Instrument was calibrated using vendor provided standards (saturated salt solutions) over the aw range of 0.25-1. All aw values are obtained after stabilization of three consecutive reads.” for “XRPD.”

For series [10], the target named is PI3K (Homo sapiens, UniProt P42336). The settings on record: WO 2017/001645, US 2017/0015678, AACR 2017; cited from earlier work.
Series [11] in a line: Surface area analysis (BET). Type of series: physicochemical. The settings on record: for BET Surface Area: Krypton gas adsorption. The protocol:
Surface area measurement was conducted using a Micromeritics ASAP 2460 with a Micromeritics Smart VacPrep attachment (Micromeritics Instrument Corp., GA). A sample of 500 mg-1 g was weighed into an empty ASAP 2460 tube and placed on the Smart VacPrep, degassed for 24 hours under ambient conditions and then exposed to Krypton gas adsorption at […] and 100 mm Hg hold pressure. An 11-point measurement was made in the relative pressure range of 0.050-0.300 and the data was analyzed using MicroActive software provided by the vendor.

The mark [12] stands for this setting: listed as printed without sonication time.
[13] abbreviates: after jet milling 3.5 hrs, 60 psi.

Chain of PI3K (P42336 whole entry): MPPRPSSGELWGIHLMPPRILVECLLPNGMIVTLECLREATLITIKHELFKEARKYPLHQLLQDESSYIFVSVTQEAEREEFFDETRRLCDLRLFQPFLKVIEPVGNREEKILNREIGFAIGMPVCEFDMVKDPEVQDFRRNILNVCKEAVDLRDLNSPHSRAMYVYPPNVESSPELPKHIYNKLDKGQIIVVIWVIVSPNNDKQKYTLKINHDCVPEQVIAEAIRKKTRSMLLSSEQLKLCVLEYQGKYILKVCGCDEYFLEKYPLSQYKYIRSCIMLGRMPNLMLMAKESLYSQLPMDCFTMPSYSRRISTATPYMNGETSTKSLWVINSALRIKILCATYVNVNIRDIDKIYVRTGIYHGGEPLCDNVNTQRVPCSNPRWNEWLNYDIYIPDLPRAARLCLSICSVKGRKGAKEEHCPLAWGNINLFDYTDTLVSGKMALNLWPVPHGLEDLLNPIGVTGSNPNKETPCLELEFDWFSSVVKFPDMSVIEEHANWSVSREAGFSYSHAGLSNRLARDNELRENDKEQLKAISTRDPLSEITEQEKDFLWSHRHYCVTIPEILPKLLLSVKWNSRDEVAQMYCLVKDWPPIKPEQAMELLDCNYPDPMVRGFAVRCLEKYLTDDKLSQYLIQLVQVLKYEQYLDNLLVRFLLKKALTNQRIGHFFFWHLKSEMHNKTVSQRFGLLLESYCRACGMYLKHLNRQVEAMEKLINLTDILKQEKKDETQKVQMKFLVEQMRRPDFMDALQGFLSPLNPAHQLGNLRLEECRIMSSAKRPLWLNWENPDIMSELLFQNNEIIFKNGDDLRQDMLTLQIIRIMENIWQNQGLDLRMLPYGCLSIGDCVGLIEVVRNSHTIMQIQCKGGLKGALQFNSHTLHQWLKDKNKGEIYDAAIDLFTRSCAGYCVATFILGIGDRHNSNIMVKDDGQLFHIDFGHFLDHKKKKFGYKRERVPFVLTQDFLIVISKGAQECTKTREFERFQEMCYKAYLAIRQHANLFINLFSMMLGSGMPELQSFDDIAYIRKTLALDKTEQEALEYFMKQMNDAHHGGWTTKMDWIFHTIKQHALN
Chain of PI3K (P27986 whole entry partner): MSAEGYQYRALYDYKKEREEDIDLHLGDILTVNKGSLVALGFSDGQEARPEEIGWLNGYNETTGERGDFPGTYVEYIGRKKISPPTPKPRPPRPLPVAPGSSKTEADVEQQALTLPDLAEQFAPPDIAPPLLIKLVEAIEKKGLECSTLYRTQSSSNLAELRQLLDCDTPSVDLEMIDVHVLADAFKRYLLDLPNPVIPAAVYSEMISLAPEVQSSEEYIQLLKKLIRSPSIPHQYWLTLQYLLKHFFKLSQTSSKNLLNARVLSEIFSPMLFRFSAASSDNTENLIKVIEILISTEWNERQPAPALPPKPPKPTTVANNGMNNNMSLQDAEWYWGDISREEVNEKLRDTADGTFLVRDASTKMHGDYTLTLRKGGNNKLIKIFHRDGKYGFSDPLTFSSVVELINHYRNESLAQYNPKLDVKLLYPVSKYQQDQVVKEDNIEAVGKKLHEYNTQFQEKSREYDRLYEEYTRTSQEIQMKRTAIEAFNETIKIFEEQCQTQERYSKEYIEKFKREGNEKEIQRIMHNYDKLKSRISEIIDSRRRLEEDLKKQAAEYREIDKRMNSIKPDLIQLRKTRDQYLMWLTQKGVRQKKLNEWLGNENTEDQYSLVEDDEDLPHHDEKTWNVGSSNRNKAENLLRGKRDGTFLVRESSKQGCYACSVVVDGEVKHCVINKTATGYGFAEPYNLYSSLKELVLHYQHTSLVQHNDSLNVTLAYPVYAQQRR

`C[C@H](Nc1ccc2c(c1)OCCn1cc(N3C(=O)OC[C@H]3C(F)F)nc1-2)C(N)=O` [Form A, (S)-2-((2-((S)-4-(difluoromethyl)-2-oxooxazolidin-3-yl)-5,6-dihydrobenzo[f]imidazo[1,2-d][1,4]oxazepin-9-yl)amino) propanamide]: the solubility in [1] was 30.8 µg/mL (≈ 75.6 µM). Besides, the “moisture uptake (water sorption)” value in series [2] (25° C., up to 90% RH) turned out to be 0.25 % w/w. In addition, the “moisture uptake (water sorption)” value in series [2] (25° C., up to 90% RH, listed as Form I) is on record as below 0.3 % w/w. Also, the “time by which form conversion is complete” value in series [3] is at most 96 h. Besides, in series [3] (RT), the “time at which anhydrate to hydrate conversion was initiated” value was determined as 12 h and the “time to complete anhydrate to hydrate conversion” value is recorded as at most 4 days. In addition, the “time within which anhydrate to hydrate conversion starts” value in series [3] (hydrate marker peak by XRPD) was at most 12 h. For the same compound, the “relative thermodynamic stability of the forms” value in series [4] (Form A versus Form D, RT to 214° C.) was “thermodynamically stable form; also recorded: more stable form”. Besides, the physical form stability entry in series [5] (25° C./60% RH) is reported as “remains stable”. Also, the physical form stability result in [5] (40° C./75% RH) was “remains stable”. Besides, in series [6] (5 sec sonication), the D10 is listed as 3.24 μm, the D50 is listed as 14.87 μm, the D90 amounted to 40.92 μm and the “D[4.3]” value stood at 19.09 μm. Further, in series [6] (15 sec sonication), the D10 is recorded as 2.70 μm, the D50 worked out at 10.93 μm, the D90 worked out at 27.59 μm and the “D[4.3]” value was found to be 13.44 μm. Moreover, in series [6] (setting [12]), the D10 is 4.76 μm, the D50 worked out at 27.73 μm, the D90 was found to be 208.16 μm and the “D[4.3]” value was found to be 74.60 μm. For the same compound, the “physical form upon milling” value in series [7] is reported as “remains stable”.

Regarding `C[C@H](Nc1ccc2c(c1)OCCn1cc(N3C(=O)OC[C@H]3C(F)F)nc1-2)C(N)=O` [Form B, (S)-2-((2-((S)-4-(difluoromethyl)-2-oxooxazolidin-3-yl)-5,6-dihydrobenzo[f]imidazo[1,2-d][1,4]oxazepin-9-yl)amino) propanamide], the “RH below which dehydration commences (desorption curve)” value in series [2] (25° C.) is recorded as “below 40 % RH”. The “RH range where intermediate dehydrated form is evident” value in series [2] (25° C., desorption) was 20-50 % RH. For the same compound, the “RH beyond which the anhydrous product rehydrates” value in series [2] (25° C., resorption) was above 40 % RH. In series [8], the “lattice water lost on isothermal dehydration” value worked out at 12%.

For the compound `C[C@H](Nc1ccc2c(c1)OCCn1cc(N3C(=O)OC[C@H]3C(F)F)nc1-2)C(N)=O` [Form D, (S)-2-((2-((S)-4-(difluoromethyl)-2-oxooxazolidin-3-yl)-5,6-dihydrobenzo[f]imidazo[1,2-d][1,4]oxazepin-9-yl)amino) propanamide], the “form conversion in slurry” value in series [4] (Forms A and D 1:1, n-propanol, RT, overnight) was “converts to Form A”.

As for `C[C@H](Nc1ccc2c(c1)OCCn1cc(N3C(=O)OC[C@H]3C(F)F)nc1-2)C(N)=O` [GDC-0077, (S)-2-((2-((S)-4-(difluoromethyl)-2-oxooxazolidin-3-yl)-5,6-dihydrobenzo[f]imidazo[1,2-d][1,4]oxazepin-9-yl)amino) propanamide], in series [9], the “aw of anhydrate-hydrate equilibrium” value was 0.82-0.86, the “equilibrium RH (relative humidity) zone for the two forms” value is recorded as 82-86% and the “water content equivalent to equilibrium RH zone” value is 65-83 % w/w. Further, in series [10], the PI3K activity result is recorded as “potent”.

`C[C@H](Nc1ccc2c(c1)OCCn1cc(N3C(=O)OC[C@H]3C(F)F)nc1-2)C(N)=O` [Jet Milled]: the “increase in moisture uptake compared to the unmilled material” value in [2] (water sorption profile) came out at 1 % w/w. In series [6] (setting [13]), this compound returned a D10 of 0.7 μm, a D50 of 2.7 μm and a D90 of 6.7 μm. The “BET Surface Area” value in [11] is on record as 6.68 ± 0.16 m2/g. Further, the “BET Surface Area” value in [11] (listed as milled lot) was found to be 6.68 m2/g. Further, the “surface area from sauter mean diameter (D3,2)” value in series [11] (calculated from particle size) is 3.42 m2/g. Further, in [11] (milled versus unmilled), the “increase in surface area upon milling” value was found to be 10 ×.

In the case of `C[C@H](Nc1ccc2c(c1)OCCn1cc(N3C(=O)OC[C@H]3C(F)F)nc1-2)C(N)=O` [Unmilled], in series [2] (up to 90% RH), the “weight gain (water sorption)” value is recorded as 0.25%. Also, the “BET Surface Area” value in series [11] is given as 0.78 ± 0.03 m2/g; in series [11] (listed as unmilled material) it was 0.78 m2/g.

One may read the solubility as the dissolved amount per volume that the medium holds. Read a high solubility as much dissolved substance.
